Like-named read-outs stand apart in the source and are kept apart here. Blank lines part the entries; values can stand above or below the compound they belong to.
What was measured:
PDE3 = settings: reference value; read-out: PDE3 activity (ref); cited from earlier work
A549 cells = test: A549 Cytotoxicity Assay (Cell Titer Glo viability); format: cell-based
Procedure: (§1) A549 Cytotoxicity Assay Protocol. Day 0: A549 cells (ATCC, A549 CCL-185) are grown to 95% confluence in RPMI, 10% FBS/Pen/Strep/L-Glutamine. Day 1: Plate cells (1000 per well) in 40 μl culturing media using Corning 384-well plates (3570), incubate in standard TC conditions (5% CO2, 95% humidity, 37° C.) for 24 h. Day 2: Dilute each concentration of a half-log serial dilution of compound (1 mM-100 nM) 1:200 in culturing media and add […] (50 μl total volume) of that dilution to designated wells (8 replicates per concentration). The final dilution will be 1000×([…]). Day 4: Remove plate from incubator to cool for 20 minutes to room temperature. Add 40 μl of a 25% Promega Cell Titer Glo solution (diluted 1:3 with room temperature PBS) with Thermo combi or multichannel and incubate for 10 min. Read on Perkin-Elmer EnVision with US LUM settings for 0.1 second per well.
A549 Assay Protocol. Day 0: A549 cells (ATCC) are grown in a Triple flask (NUNC) to ˜95% confluence (TrypLE Phenol Red free) and resuspended for dispensing at 25,000 cells/mL of DMEM, 10% FBS/Pen/Strep/L-Glutamine (using the TAP Compact SelecT automated cell culture system). Day 1: Plate cells at 1000 per well in 40 uL media (DMEM/10% FBS/Pen/Strep/L-Glutamine) using Corning 8867BC 384 well plates; incubate in standard TC conditions (5% CO2; 95% humidity, 37° C.) for 24 hours (Compact SelecT). Day 2: Add 100 nL compound per well at dose into 40 uL assay volume using a pin tool (CyBi Well). Pin 100 nL cytotoxic compounds, mitoxantrone (CID 4212) to positive control wells to a final concentration of 10 μM (100 nL 4 mM DMSO stock). Incubate for […] at 37° C. in Liconic incubator, 95% humidity 5% CO2. Day 4: Remove plate from incubator, cool for 15 minutes to room temperature; add 20 μL 50% Promega CellTiterGlo (diluted 1:1 with PBS, pH 7.4) with Thermo Combi. Incubate at room temperature for 5 minutes. Read plates on Perkin-Elmer EnVision with standard luminescence settings for 0.1 sec per well.
(§2) Compounds as shown were tested against various cells lines in vitro according to the methods described herein. Cells are plated in 384-well format in a total volume of 40 μl. Indicated compound concentrations were added 24 hrs after plating the cells. After 48 hrs cell viability was determined using Cell Titer Glo® Luminescent Cell Viability Assay.
as §2, with “Known PDE3 inhibitors” for “Compounds”, “shown below” for “shown”

HeLa cells [1] = test: HeLa Cytotoxicity Assay (Cell Titer Glo viability); format: cell-based
Procedure: HeLa Cytotoxicity Assay Protocol: Day 0: HeLa cells (ATCC, HeLa CCL-2) are grown to 95% confluence in DMEM, 10% FBS/Pen/Strep/L-Glutamine. Day 1: Plate cells (1000 per well) in 40 μl culturing media using Corning 384-well plates (3570), incubate in standard TC conditions (5% CO2, 95% humidity, 37 degrees C.) for 24 hours. Day 2: Dilute each concentration of a half-log serial dilution of compound (1 mM-100 nM) 1:200 in culturing media and add 10 μl (50 μl total volume) of that dilution to designated wells (8 replicates per concentration). The final dilution will be 1000×(1 μM-100 pM). Day 4: Remove plate from incubator to cool for 20 minutes to room temperature. Add 40 μl of a 25% Promega Cell Titer Glo solution (diluted 1:3 with room temperature PBS) with Thermo combi or multichannel and incubate for 10 minutes. Read on Perkin-Elmer EnVision with US LUM settings for 0.1 second per well.
as §2
as §2, with “Known PDE3 inhibitors” for “Compounds”, “shown below” for “shown”

H2122 cells = test: H2122 Assay (Cell Titer Glo viability); format: cell-based; settings: 48 hrs, Cell Titer Glo, read-out: EC50 H2122
Procedure: Selective toxicity in cell line panel. H2122 Assay Protocol Day 0: H2122 cells (ATCC, H2122 CCL-5985) are grown to 95% confluence in RPMI, 10% FBS/Pen/Strep/L-Glutamine. Day 1: Plate cells (750 per well) in 40 μl culturing media using Corning 384-well plates (3570), incubate in standard TC conditions (5% CO2, 95% humidity, 37 degrees C.) for 24 h. Day 2: Dilute each concentration of a half-log serial dilution of compound (1 mM-100 nM) 1:200 in culturing media and add 10 μl (50 μl total volume) of that dilution to designated wells (8 replicates per concentration). The final dilution will be 1000×([…]). Day 4: Remove plate from incubator to cool for 20 minutes to room temperature. Add 40 μl of a 25% Promega Cell Titer Glo solution (diluted 1:3 with room temperature PBS) with Thermo combi or multichannel and incubate for 10 minutes. Read on Perkin-Elmer EnVision with US LUM settings for 0.1 second per well.
as §2

HEL = HEL cell line viability (Cell Titer Glo); format: cell-based
Procedure: as §2

COLO741 cells = test: COLO741 Assay (Cell Titer Glo viability); format: cell-based; settings: 48 hrs, Cell Titer Glo, read-out: EC50 COLO741
Procedure: as §1, with “C0L0741” for “A549 Cytotoxicity”, “C0L0741” for “A549”, “(ECACC, C0L0741 93052621)” for “(ATCC, A549 CCL-185)”, “(1500” for “(1000”, “minutes.” for “min.”
as §2

HeLa cells [2] = test: PARP cleavage assay (immunoblot); format: cell-based
Procedure: The mechanism of cell death was determined after contacting the cells with the compound in Example 1. […] Cells were treated for 24 h with the indicated concentrations of each agent, lysed, and immunoblotted with anti-PARP or anti-actin.

[3] = Homo sapiens, A549, known PDE3 inhibitors, Mean (n = 3), read-out: Potency (EC50 nM) A549
[4] = Homo sapiens, HeLa, known PDE3 inhibitors, Mean (n = 3), read-out: Potency (EC50 nM) HeLa
[5] = 48 hrs, Cell Titer Glo, read-out: EC50 A549
[6] = Homo sapiens, HeLa, 48 h, Cell Titer Glo, read-out: EC50 HeLa
[7] = Homo sapiens, A549, 48 hrs, Cell Titer Glo, read-out: EC50 A549

Compound: Cc1[nH]c(=O)c(C#N)cc1-c1ccncc1 [Millrinone, reference compound]
IC50 (PDE3): 56 nM
EC50 (A549 cells; [3]): > 10000 nM
EC50 (HeLa cells [1]; [4]): > 10000 nM

Compound: CC(=O)Nc1ccc(C2=NNC(=O)C[C@H]2C)cc1 [OR-1896, reference compound]
IC50 (PDE3): 94 nM
EC50 (A549 cells; known PDE3 inhibitors, Mean (n = 3), read-out: Potency (EC50 nM) A549): > 10000 nM
EC50 (HeLa cells [1]; [4]): > 10000 nM

Compound: CN/C(=N\c1ccc(C2=NNC(=O)CC2C)cc1)NC#N (stereo not shown) [Siguazodan, reference compound]
IC50 (PDE3): 117 nM
EC50 (A549 cells; [3]): > 10000 nM
EC50 (HeLa cells [1]; [4]): > 10000 nM

Compound: COc1cc2c(cc1OC)-c1c/c(=N\c3c(C)cc(C)cc3C)n(C)c(=O)n1CC2 [Trequinsin, reference compound]
IC50 (PDE3): 0.25 nM
EC50 (A549 cells; [3]): > 10000 nM
EC50 (HeLa cells [1]; [4]): > 10000 nM

Compound: COc1cc(-c2ccc(=O)[nH]n2)ccc1OC(F)F [Zardaverine, reference compound]
IC50 (PDE3): 2500 nM
EC50 (A549 cells; [3]): > 10000 nM
EC50 (HeLa cells [1]; [4]): 56 nM

EC50 (H2122 cells; Homo sapiens, NCI-H2122, 48 h): 11.8 nM
EC50 (COLO741 cells): 14.5 to 18.9 nM
Compound: C[C@@H]1CC(=O)NN=C1c1ccc(N2CCOCC2)cc1 [drawing 138]
EC50 (HEL; 48 hrs): 25.7 to 58.4 nM
EC50 (A549 cells; [5]): > 10000 nM
EC50 (HeLa cells [1]; [6]): 10.3 to 12.1 nM

EC50 (H2122 cells): 3.62 nM
EC50 (COLO741 cells; Homo sapiens, COLO-741, 48 h): 3.97 nM
Compound: CCN(CC)c1ccc(C2=NNC(=O)C[C@H]2C)cc1[N+](=O)[O-] [drawing 141]
EC50 (HEL; Homo sapiens, HEL, 48 h): 13.5 nM
EC50 (A549 cells; [7]): > 10000 nM
EC50 (HeLa cells [1]; [6]): 2.63 nM

EC50 (H2122 cells; Homo sapiens, NCI-H2122, 48 h): 0.8 nM
EC50 (COLO741 cells; Homo sapiens, COLO-741, 48 h): 0.76 nM
Compound: CCNc1ccc(C2=NNC(=O)C[C@H]2C)cc1[N+](=O)[O-] [drawing 142]
EC50 (HEL; Homo sapiens, HEL, 48 h): 3.98 nM
EC50 (A549 cells; [7]): > 10000 nM
EC50 (HeLa cells [1]; [6]): 0.461 nM

EC50 (H2122 cells): 7.4 nM
EC50 (COLO741 cells): 3.6 to 4.4 nM
Compound: CCN(CC)c1ccc(C2=NNC(=O)C[C@H]2C)cc1[N+](=O)[O-] [drawing 145]
EC50 (HEL; 48 hrs): 11.3 to 16.2 nM
EC50 (A549 cells; [5]): > 10000 nM
EC50 (HeLa cells [1]; 48 hrs, Cell Titer Glo, read-out: EC50 HeLa): 4.05 nM

EC50 (COLO741 cells; Homo sapiens, COLO-741, 48 h): 16.5 nM
Compound: C[C@@H]1CC(=O)NN=C1c1ccc(N2CCOCC2)cc1 [drawing 151]
EC50 (HEL; Homo sapiens, HEL, 48 h): 38.7 nM
EC50 (A549 cells; [7]): > 10000 nM

Compound: OO [hydrogen peroxide]
mechanism of cell death (PARP cleavage) (HeLa cells [2]; Hela cells treated for 24 h, anti-PARP immunoblot, FIG. 3): caused necrosis but not apoptosis

Compound: CN[C@@H]1C[C@H]2O[C@@](C)([C@@H]1OC)n1c3ccccc3c3c4c(c5c6ccccc6n2c5c31)C(=O)NC4 [staurosporine]
cell death (HeLa cells [2]; Hela cells, 10 μM, 24 h): almost complete cell death

— patent publication US20180244629A1, “Compounds And Compositions For The Treatment Of Cancer” (The Broad Institute, Inc., priority 2013, published 2018)
